In assay [1] the target is T1, α1β3γ2 GABAA receptor, γ2R224X variant (Homo sapiens, UniProt P14867+P28472).
T1 construct: expressed in transfected cells; host or cells: HEK293T
T1 sequence (P14867 28-456): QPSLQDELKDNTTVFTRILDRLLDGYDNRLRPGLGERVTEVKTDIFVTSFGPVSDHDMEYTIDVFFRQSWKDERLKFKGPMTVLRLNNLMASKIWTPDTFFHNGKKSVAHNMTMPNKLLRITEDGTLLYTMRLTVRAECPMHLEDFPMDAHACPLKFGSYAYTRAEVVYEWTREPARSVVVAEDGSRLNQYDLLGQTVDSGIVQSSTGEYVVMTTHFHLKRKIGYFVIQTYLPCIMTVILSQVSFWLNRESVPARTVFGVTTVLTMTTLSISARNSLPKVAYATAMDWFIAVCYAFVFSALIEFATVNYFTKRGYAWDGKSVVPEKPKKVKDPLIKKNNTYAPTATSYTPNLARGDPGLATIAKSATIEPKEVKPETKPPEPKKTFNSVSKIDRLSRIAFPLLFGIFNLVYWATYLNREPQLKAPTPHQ
T1 sequence (P28472 1-473 isoform P28472-2): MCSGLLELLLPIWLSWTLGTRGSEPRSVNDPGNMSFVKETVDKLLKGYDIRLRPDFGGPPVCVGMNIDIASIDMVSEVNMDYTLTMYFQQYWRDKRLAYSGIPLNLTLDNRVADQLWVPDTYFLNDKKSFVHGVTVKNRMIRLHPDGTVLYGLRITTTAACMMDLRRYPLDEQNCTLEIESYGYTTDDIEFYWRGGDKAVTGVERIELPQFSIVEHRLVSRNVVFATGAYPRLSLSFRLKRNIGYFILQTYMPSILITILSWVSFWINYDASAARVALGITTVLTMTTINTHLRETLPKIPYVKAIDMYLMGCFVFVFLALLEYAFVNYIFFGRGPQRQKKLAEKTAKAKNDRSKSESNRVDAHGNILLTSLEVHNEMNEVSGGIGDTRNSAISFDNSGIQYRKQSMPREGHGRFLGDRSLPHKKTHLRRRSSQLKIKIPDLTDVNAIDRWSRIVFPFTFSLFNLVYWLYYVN
Put plainly: Automated patch clamp of GABA-elicited currents (SyncroPatch 384PE), γ2R224X. In kind it is cell-based. The conditions noted are these: mean. Here is the method:
(§1) The coding sequences of human α1 (GABRA1, NM_000806), β3 (GABRB3, NM_021912), and γ2 (GABRG2, NM_198904.2) GABAAR subunits were subcloned into the pcDNA3.1 expression vectors (Invitrogen, Waltham, MA, USA).
(§2) HEK293T cells (ATCC, CRL-11268) were cultured at 37 °C in a humidified 5% CO2 incubator and maintained in Dulbecco’s modified Eagle’s medium (Invitrogen) supplemented with 10% fetal bovine serum (Life Technologies, Carlsbad, CA, USA), and 100 IU/mL of penicillin/streptomycin (Life Technologies). For the expression experiments, 4 × 10^5 cells were transfected using polyethylenimine (PEI) reagent (40 kD, Polysciences, Warrington, PA, USA) at a DNA: to transfection reagent ratio of 1:2.5 and harvested 36 h after transfection. To express WT and variant α1β3γ2 receptors, a total of 3 µg of α1, β3, and γ2 (WT or mutant) subunit cDNAs were transfected at a ratio of 1:1:1 into 60 mm culture dishes. For the mock-transfected condition, an empty pcDNA3.1 vector was added for a final cDNA transfection amount of 3 μg. For the electrophysiology experiments, 2.5 × 10^5 cells were plated in 100 mm culture dishes and transfected after 24 h with 3 μg of cDNA of each α1, β3, γ2 (wild-type or mutant) subunit, using X-tremeGENE HP DNA transfection Reagent (Roche Diagnostics, Basel, Switzerland), following the manufacturer’s protocol. Recordings were obtained forty-eight hours after transfection.
(§3) Whole-cell patch clamp recordings were conducted according to the manufacturer’s standard procedure for the SyncroPatch 384 [31]. Whole-cell voltage-clamp recordings were performed at room temperature on HEK293T cells 48 h after transfection with GABAAR subunits, using the SyncroPatch 384PE (Nanion Technologies, Munich, Germany). Cells, at a concentration of 400,000 cells/mL, were harvested in suspension in external solution containing 140 mM of NaCl, 2 mM of CaCl2, 4 mM of KCl, 1 mM of MgCl2, 5 mM of glucose, and 10 mM of HEPES (pH 7.4 with NaOH, 298 mOsm). The cells were loaded in a multi-hole (4 holes per well) 384-well Nanion patch clamp (NPC) chip with a thick borosilicate glass bottom and an average resistance pore size of […]. Built-in electrophysiological protocols were used, and the data were digitized using PatchControl 384 (Nanion Technologies) application. Using PatchControl 384, electrophysiological parameters, such as seal resistance, capacitance, and series resistance, were determined for each well after the application of a test pulse, and subsequently monitored over time. […] The currents were normalized to the maximal response of each well, and the concentration–response curves were calculated from single-point additions. The EC50 values for each variant or wild-type receptor were calculated across multiple wells for each experimental condition.
A general note: Patch clamp records ionic current or voltage across a cell membrane.

Assay [2] deals with T2, α1β3γ2 GABAA receptor, γ2W162X variant (Homo sapiens, UniProt P14867+P28472).
T2 construct: expressed in transfected cells; host or cells: HEK293T
T2 sequence (P14867 28-456): T1 sequence (P14867 28-456)
T2 sequence (P28472 1-473 isoform P28472-2): T1 sequence (P28472 1-473 isoform P28472-2)
The experiment in a line: Automated patch clamp of GABA-elicited currents (SyncroPatch 384PE), γ2W162X. The note with it: mean. In kind it is cell-based. As to the method: as §1, §2, §3

Setting [3] is: 1 mM GABA for 5 ms, HEK293T, -80 mV.
[4] abbreviates: 10–90% rise time, 1 mM GABA for 5 ms, HEK293T.

Regarding `NCCCC(=O)O` [GABA, γ-aminobutyric acid], the Deactivation in assay [1] (setting [3]) came out at 350.1 ms; in assay [2] (setting [3]), 533.8 ms. The “IMAX (maximal GABA-evoked peak current)” value in assay [1] (1 mM GABA for 5 ms, HEK293T) is reported as 0.85 nA; in assay [2] (1 mM GABA for 5 ms, HEK293T) it was 0.48 nA. Moreover, the “IMAX variant/IMAX WT” value in assay [1] (1 mM GABA) is reported as 42.52%; in assay [2] (1 mM GABA), 24.07%. For the same molecule, the figures for the “Rise Time” value in assay [1] (setting [4]) and in assay [2] (setting [4]) were 72.64 ms and 23.51 ms, respectively.

The values above are taken from paper PMC10046037, “GABRG2 Variants Associated with Febrile Seizures” (Biomolecules, 2023).
